Calls of active or inactive are those of the source.
Assays:
[1] = biological target: T1, Short transient receptor potential channel 4 (Mus musculus, UniProt Q9QUQ5); experiment: calcium entry via TRPC4 opening agents – cell-based, HEK293 TRPC4/mu-opioid, Fluo-4 calcium, dose response (AID 434937); format: functional
T1 sequence (Q9QUQ5 whole entry): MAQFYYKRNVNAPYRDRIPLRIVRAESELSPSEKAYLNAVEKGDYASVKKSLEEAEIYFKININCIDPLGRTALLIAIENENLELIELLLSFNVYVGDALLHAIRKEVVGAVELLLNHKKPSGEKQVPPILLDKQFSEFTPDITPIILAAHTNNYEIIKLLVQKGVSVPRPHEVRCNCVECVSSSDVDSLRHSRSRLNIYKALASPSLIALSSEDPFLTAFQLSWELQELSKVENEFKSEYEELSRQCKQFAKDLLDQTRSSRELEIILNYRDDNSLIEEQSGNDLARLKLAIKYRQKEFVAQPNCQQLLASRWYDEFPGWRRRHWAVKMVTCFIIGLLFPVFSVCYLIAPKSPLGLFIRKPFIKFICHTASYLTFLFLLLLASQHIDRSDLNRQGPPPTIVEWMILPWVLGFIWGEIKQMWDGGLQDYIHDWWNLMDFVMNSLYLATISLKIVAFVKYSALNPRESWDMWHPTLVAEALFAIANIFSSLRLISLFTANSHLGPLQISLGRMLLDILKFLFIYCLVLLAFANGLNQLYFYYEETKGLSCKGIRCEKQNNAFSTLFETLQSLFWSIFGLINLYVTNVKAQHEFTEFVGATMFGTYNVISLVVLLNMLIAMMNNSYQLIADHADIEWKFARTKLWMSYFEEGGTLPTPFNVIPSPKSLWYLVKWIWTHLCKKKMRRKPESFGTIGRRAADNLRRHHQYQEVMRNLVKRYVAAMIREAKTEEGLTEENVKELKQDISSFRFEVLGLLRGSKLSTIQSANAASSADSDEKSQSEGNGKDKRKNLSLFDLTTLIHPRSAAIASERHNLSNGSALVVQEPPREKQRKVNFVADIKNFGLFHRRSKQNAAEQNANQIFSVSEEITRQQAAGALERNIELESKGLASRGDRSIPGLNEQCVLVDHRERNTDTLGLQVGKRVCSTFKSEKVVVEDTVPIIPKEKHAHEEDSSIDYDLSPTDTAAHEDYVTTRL

[2] = Trypanosoma cruzi growth suppression in host cells – NIH3T3 host cells, beta-gal luminescence, confirmation (AID 2044); format: functional, cell-based;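 note: intracellular parasites grown in NIH/3T3 mouse fibroblasts as host cells; luminescent beta-galactosidase reporter signal from transgenic T. cruzi replicating inside host cells; inhibitors lower the luminescence signal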
[3] = NIH3T3 cell viability loss – ATP luminescence, mouse fibroblasts, counter-screen, dose response (AID 2010); format: functional, cell-based;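 note: cells exposed to compound for about 90 hours before reading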
[4] = biological target: T2, Heat shock protein HSP 90-alpha (Homo sapiens, UniProt P07900); experiment: Luminescence-based dose response biochemical high throughput screening assay for inhibitors of the Heat Shock Protein 90 (HSP90). [Related pubchem assays: 1831 (Summary AID.), 1846 (Confirmation screen.), 1789 (Primary screen.)]
[5] = biological target: T3, Small ubiquitin-related modifier 1 (Homo sapiens, UniProt P63165); experiment: SUMO1 protein-protein binding blockers, potency – biochemical, FRET, dose response (AID 624383); format: functional; conditions: read-out: IC50_Mean
[6] = biological target: T4, Dual specificity protein phosphatase 6 (Rattus norvegicus, UniProt Q64346); experiment: inhibition of rat DUSP6 enzyme activity – biochemical, in vitro, primary screen (AID 425)
T4 sequence (Q64346 whole entry): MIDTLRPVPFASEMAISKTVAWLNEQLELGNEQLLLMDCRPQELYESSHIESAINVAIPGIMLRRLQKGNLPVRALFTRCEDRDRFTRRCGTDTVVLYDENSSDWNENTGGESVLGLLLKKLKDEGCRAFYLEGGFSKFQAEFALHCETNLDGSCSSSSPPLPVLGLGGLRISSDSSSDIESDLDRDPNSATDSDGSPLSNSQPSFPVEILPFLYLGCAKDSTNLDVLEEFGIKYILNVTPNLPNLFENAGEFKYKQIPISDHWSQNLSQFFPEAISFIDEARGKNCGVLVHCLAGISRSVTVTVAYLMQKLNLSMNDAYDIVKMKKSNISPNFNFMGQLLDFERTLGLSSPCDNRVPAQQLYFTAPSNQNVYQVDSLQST

[7] = biological target: T3, Small ubiquitin-related modifier 1; experiment: SUMO1 protein interaction blockers, potency – biochemical, fluorescence polarization, uHTS hits, dose response (AID 624382); format: functional; conditions: read-out: IC50_Mean
Bcl-2-related protein A1 = biological target: T5, Bcl-2-related protein A1 (Mus musculus, UniProt Q07440); experiment: displacement of Bid BH3 peptide from Bfl-1 – biochemical, fluorescence polarization, FITC-Bid, mouse, primary screen (AID 432)
T5 sequence (Q07440 whole entry): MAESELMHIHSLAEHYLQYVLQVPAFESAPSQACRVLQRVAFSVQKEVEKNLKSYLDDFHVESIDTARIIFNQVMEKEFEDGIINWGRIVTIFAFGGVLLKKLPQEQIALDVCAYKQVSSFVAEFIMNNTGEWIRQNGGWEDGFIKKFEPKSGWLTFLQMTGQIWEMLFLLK

[8] = biological target: T2, Heat shock protein HSP 90-alpha; format: functional, organism-based
[9] = viability loss in THP-1 monocytes – THP-1 cells, cytotoxicity control for Vif-APOBEC3G degradation inhibitor project, dose response (AID 1117359); format: functional; conditions: THP-1
Protein Tat = Protein Tat (Human immunodeficiency virus type 1 group M subtype B (isolate HXB2)(HIV-1), UniProt P04608); format: functional;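 note: tat binding to TAR RNA read out by fluorescence polarization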
[10] = Luminescent dose response cell-based high throughput screening assay for inhibitors of the Janus kinase 2 mutant JAK2V617F. [Related pubchem assays: 1446 (Primary screen.), 1521 (Confirmation assay.), 1486 (Counter screen.)]; format: functional
[11] = viability of uninfected HEp-2 cells – cell-based, HTS, cytotoxicity control for RSV inhibitor project, dose response (AID 2410); format: functional; conditions: human respiratory syncytial virus
[12] = Luminescence Cell-Based Dose Confirmation to Identify Activators of 5'UTR Stem-Loop Driven Alpha-Synuclein mRNA Translation in H4 Neuroglioblastoma Cells. [Related pubchem assays: 1829 (Project Summary), 1814 (Primary HTS)]; format: functional
[13] = Luminescence Cell-Based Dose Response to Identify Activators of Luciferase Translation or Activity in H4-C Neuroglioblastoma Cells. [Related pubchem assays: 1829 (Project Summary), 1814 (Primary HTS)]; format: functional
[14] = Luminescence Cell-Based Dose Response to Identify Activators of 5'UTR Stem-Loop Driven Prion Protein mRNA Translation in H4-C Neuroglioblastoma Cells. [Related pubchem assays: 1829 (Project Summary), 1814 (Primary HTS)]; format: functional
[15] = Luminescence Cell-Based Dose Response HTS to Identify Activators of Luciferase Translation or Activity in H4 […] Cells. [Related pubchem assays: 1829 (Project Summary), 1814 (Primary HTS)]; format: functional
Large T antigen = Large T antigen (Simian virus 40, UniProt P03070); format: functional, Betapolyomavirus macacae;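 note: Confirmatory-stage PubChem screen for compounds that inhibit SV40 T antigen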
Sequence of Large T antigen (P03070 whole entry): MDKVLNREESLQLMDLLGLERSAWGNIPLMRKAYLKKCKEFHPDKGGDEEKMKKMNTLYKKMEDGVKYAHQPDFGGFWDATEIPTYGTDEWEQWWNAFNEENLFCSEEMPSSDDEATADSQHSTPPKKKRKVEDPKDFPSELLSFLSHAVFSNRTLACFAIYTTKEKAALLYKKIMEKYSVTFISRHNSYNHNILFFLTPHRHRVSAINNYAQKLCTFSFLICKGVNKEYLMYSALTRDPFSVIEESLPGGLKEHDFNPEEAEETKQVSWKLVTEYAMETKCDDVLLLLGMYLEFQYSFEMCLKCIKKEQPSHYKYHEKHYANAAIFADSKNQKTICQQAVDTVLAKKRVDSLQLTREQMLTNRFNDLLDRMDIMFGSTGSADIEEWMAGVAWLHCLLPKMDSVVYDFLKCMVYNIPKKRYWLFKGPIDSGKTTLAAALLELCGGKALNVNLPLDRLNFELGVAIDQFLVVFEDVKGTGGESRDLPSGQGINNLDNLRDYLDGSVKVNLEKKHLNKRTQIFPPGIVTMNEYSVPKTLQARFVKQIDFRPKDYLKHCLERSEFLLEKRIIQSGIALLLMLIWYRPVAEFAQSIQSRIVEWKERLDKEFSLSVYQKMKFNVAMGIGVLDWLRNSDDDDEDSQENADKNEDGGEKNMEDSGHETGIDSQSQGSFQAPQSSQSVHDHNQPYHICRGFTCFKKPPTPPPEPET

T3 sequence (P63165 whole entry): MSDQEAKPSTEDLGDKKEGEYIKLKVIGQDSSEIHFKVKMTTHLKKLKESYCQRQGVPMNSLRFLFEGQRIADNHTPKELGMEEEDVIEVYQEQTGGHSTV
Sequence of Protein Tat (P04608 whole entry): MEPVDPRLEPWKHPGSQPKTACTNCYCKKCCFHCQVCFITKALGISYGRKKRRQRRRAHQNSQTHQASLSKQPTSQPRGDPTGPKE

SMILES: Cc1ccc2oc(=O)c3cnn(CC(=O)NC4CCN(Cc5ccccc5)CC4)c3c2c1
- EC50 [1]: 2.11 µM (active)
- EC50 [2]: < 0.1 µM (active)
- EC50 [3]: > 60 µM (not active)
- EC50 (cells): 0.079 µM (active)

SMILES: COC(=O)c1ccc(COc2ccc3c(C)c(C)c(=O)oc3c2)o1
- IC50 [4]: 1.07 µM (active)

SMILES: Nc1ccc2ncccc2c1N
- IC50 [5]: 3.21 µM (active)
- IC50 [6]: > 10 µM (not active)
- IC50 [7]: > 66.6 µM (inactive)
- IC50 (Bcl-2-related protein A1): 3.49 µM (active)

SMILES: O=C(Nc1nc(-c2ccco2)c(-c2ccco2)s1)c1ccco1
- AC50 [8]: 5.17 µM (active)
- CC50 [9]: > 40 µM (active)
- IC50 (Protein Tat): > 100 µM (active)

SMILES: CCCn1c(CN(C)Cc2ccccc2)nc2c1c(=O)n(C)c(=O)n2C
- IC50 [10]: 4.92 µM (active)

SMILES: COc1ccc(CCN2C(=O)CC(Nc3ccc(N4CCOCC4)cc3)C2=O)cc1OC (stereo not given)
- IC50 (Protein Tat): 18.8 µM (inconclusive)

SMILES: COC(=O)C1CCN(C(=O)c2ccc3nc(-c4cccc(OC)c4)oc3c2)CC1
- IC50 [4]: 1.05 µM (active)

SMILES: O=C(Nc1nc(-c2ccc3c(c2)OCCO3)cs1)C1CCCC1
- CC50 [11]: 21 µM (active)
- EC50 [12]: 0.247 µM (active)
- EC50 [13]: 0.27 µM (active)
- EC50 [14]: 0.365 µM (active)
- EC50 [15]: < 0.1 µM (inconclusive)

SMILES: Cc1ncc(CN2CCCC(CCC(=O)NCc3ccccc3F)C2)s1 (stereo not given)
- EC50 [2]: < 0.1 µM (active)
- EC50 [3]: > 60 µM (not active)
- EC50 (cells): 0.099 µM (active)

SMILES: Cc1oc2c(O)c(O)ccc2c(=O)c1-c1cnn(-c2ccccc2)c1
- IC50 (Large T antigen): 10.2 µM (active)
- IC50 [10]: 2.04 µM (active)

Source: ChEMBL document CHEMBL1201862, “PubChem BioAssay data set” (2004)
